Legend:
AD38 cells = assay: Viability of AD38 cells, Promega CellTiter-Glo; format: cell-based; settings: 10 μM compound, 6 days, CellTiter-Glo luminescence, controls being 100%
Experimental: (§1) Example 63: Assay Measuring Activity of Compounds on Viral Production in and on Viability of AD38 Cells
(§2) AD38 cells were then re-suspended with 10 mL of Treatment Medium and counted. Wells of a collagen coated 96-well NUNC microtiter plate were seeded at 50,000/well in 180 μL of Treatment Medium, and 20 μL of in treatment media with either 10% DMSO (Control) or a 10× solution of compound in 10% DMSO was added. Plates were incubated for 6 days at 37° C.
At the end of compound treatment period cell viability was assessed using a Promega CellTiter-Glo protocol. All supernatant was removed the previously treated 96-well microtiter plate, and 50 μL Tetracycline-free treatment medium (DMEM/F12 (1:1), 1×Pen/step (cat#: 30-002-CL, Mediatech, Inc), with 2% FBS, Tet-system approved (cat#: 631106, Clontech), and 1% DMSO was added back to each well. Another 50 μL of CellTiter-Glo reagent solution (Promega, G7573) was then added at room temperature and the contents mixed for 2 minutes on an orbital shaker to induce cell lysis. This was followed by incubation at room temperature for 10 minutes to stabilize the luminescent signal. The luminescence was recorded for 0.2 seconds per well on a Tecan multimode platereader (Infinite M1000 pro). The luminescent signal from each well was normalized against that of untreated (DMSO) control wells. All results in Table 3 were reported with percent viability (with controls being 100%).

HBV = assay: Viral load production in AD38 cells, quantitative PCR of the core sequence in supernatant; format: cell-based; settings: 10 μM compound, 6 days at 37° C., supernatant qPCR vs DMSO control; for activity at 10 µM: Hepatitis B virus, 144 h, read-out: AD38 Viral Load (%) (VL with cmpd/VL in DMSO control) at 10 μM
Experimental: as §1, §2
Viral load production was assayed by quantitative PCR of the core sequence. […] The PCR mixture was incubated at 45° C. for 5 minutes, then 95° C. for 10 min, followed by 40 cycles of 10 seconds at 95° C. and 20 seconds at 60° C. Viral load was quantitated against known standards by using ViiA™ 7 Software. Viral load in the supernatant from wells with treated cells were compared against viral load in supernatant from DMSO control wells (≥3 per plate).

| SMILES | AD38 Viability Normalized Result (cmpd/DMSO %) at 10 μM (AD38 cells) | AD38 Viral Load (%) (VL with cmpd/VL in DMSO control) at 10 μM (HBV) | activity at 10 µM (HBV) |
| --- | --- | --- | --- |
| NCc1ccc(-c2ccc(CNC(=O)c3ccc4c(c3)NC(=O)c3ccccc3O4)cc2)cc1 [Compound 726] | 1% | 6.1% |  |
| N#Cc1cccc(-c2ccc(CNC(=O)c3ccc4c(c3)NC(=O)c3ccccc3O4)cc2)c1 [Compound 728-A] | 120% |  | 66.8% |
| O=C(NCc1ccc(-c2ccc3[nH]cnc3c2)cc1)c1ccc2c(c1)NC(=O)c1ccccc1O2 [Compound 729] | 97% |  | 16.3% |
| O=C(NCc1ccc(-c2ccc3[nH]ccc3c2)cc1)c1ccc2c(c1)NC(=O)c1ccccc1O2 [Compound 730] | 101% |  | 24.2% |
| O=C(NCc1cccc(Cc2cccc(O)c2)c1)c1ccc2c(c1)NC(=O)c1ccccc1O2 [Compound 740] | 103% |  | 23.8% |
| O=C(NCc1cccc(Cc2ccc(O)cc2)c1)c1ccc2c(c1)NC(=O)c1ccccc1O2 [Compound 741, N-(3-(4-hydroxybenzyl)benzyl)-11-oxo-10,11-dihydrodibenzo[b,f][1,4]oxazepine-8-carboxamide] | 111% |  | 40.1% |
| COc1ccc(Cc2cccc(CNC(=O)c3ccc4c(c3)NC(=O)c3ccccc3O4)c2)cc1 [Compound 741-A] | 89% |  | 42.4% |
| O=C(NCc1cccc(Sc2cccc(O)c2)c1)c1ccc2c(c1)NC(=O)c1ccccc1O2 [Compound 742, N-(3-((3-hydroxyphenyl)thio)benzyl)-11-oxo-10,11-dihydrodibenzo[b,f][1,4]oxazepine-8-carboxamide] | 89% |  | 12.7% |
| COc1cccc(Sc2cccc(CNC(=O)c3ccc4c(c3)NC(=O)c3ccccc3O4)c2)c1 [Compound 742-A, N-(3-((3-methoxyphenyl)thio)benzyl)-11-oxo-10,11-dihydrodibenzo[b,f][1,4]oxazepine-8-carboxamide] | 107% |  | 2.6% |
| O=C(NCc1cccc(Sc2ccc(O)cc2)c1)c1ccc2c(c1)NC(=O)c1ccccc1O2 [Compound 743, N-(3-((4-hydroxyphenyl)thio)benzyl)-11-oxo-10,11-dihydrodibenzo[b,f][1,4]oxazepine-8-carboxamide] | 102% |  | 6.8% |
| COc1ccc(Sc2cccc(CNC(=O)c3ccc4c(c3)NC(=O)c3ccccc3O4)c2)cc1 [Compound 743-A] | 91% |  | 22.7% |
| O=C(NCc1cccc(Oc2cccc(O)c2)c1)c1ccc2c(c1)NC(=O)c1ccccc1O2 [Compound 744, N-(3-(3-hydroxyphenoxy)benzyl)-11-oxo-10,11-dihydrodibenzo[b,f][1,4]oxazepine-8-carboxamide] | 108% |  | 62.9% |
| COc1cccc(Oc2cccc(CNC(=O)c3ccc4c(c3)NC(=O)c3ccccc3O4)c2)c1 [Compound 744-A, N-(3-(3-methoxyphenoxy)benzyl)-11-oxo-10,11-dihydrodibenzo[b,f][1,4]oxazepine-8-carboxamide] | 103% |  | 8.9% |
| O=C(NCc1cccc(Oc2ccc(O)cc2)c1)c1ccc2c(c1)NC(=O)c1ccccc1O2 [Compound 745, N-(3-(4-hydroxyphenoxy)benzyl)-11-oxo-10,11-dihydrodibenzo[b,f][1,4]oxazepine-8-carboxamide] | 108% |  | 38.7% |
| COc1ccc(Oc2cccc(CNC(=O)c3ccc4c(c3)NC(=O)c3ccccc3O4)c2)cc1 [Compound 745-A, N-(3-(4-methoxyphenoxy)benzyl)-11-oxo-10,11-dihydrodibenzo[b,f][1,4]oxazepine-8-carboxamide] | 92% |  | 16.1% |
| NC(=O)c1ccc(-c2ccc(CNC(=O)c3ccc4c(c3)NC(=O)c3ccccc3S4(=O)=O)cc2)cc1 [Compound 765] | 103% | 59.4% |  |
| O=C(NCc1cccc(-c2ccc(O)cc2)c1)c1ccc2c(c1)NC(=O)c1ccccc1S2(=O)=O [Compound 773] | 87% |  | 0.6% |
| O=C(NCc1cccc(-c2cccc(O)c2)c1)c1ccc2c(c1)NC(=O)c1ccccc1S2(=O)=O [Compound 774] | 113% |  | 48.5% |
| COc1ccc(-c2ccc(CNC(=O)c3ccc4c(c3)NC(=O)c3ccccc3S4(=O)=O)cc2)cn1 [Compound 775, N-(4-(6-methoxypyridin-3-yl)benzyl)-11-oxo-10,11-dihydrodibenzo[b,f][1,4]thiazepine-8-carboxamide 5,5-dioxide] | 93% |  | 2.6% |
| O=C(NCc1ccc(-c2ccc(O)nc2)cc1)c1ccc2c(c1)NC(=O)c1ccccc1S2(=O)=O [Compound 776, N-(4-(6-hydroxypyridin-3-yl)benzyl)-11-oxo-10,11-dihydrodibenzo[b,f][1,4]thiazepine-8-carboxamide 5,5-dioxide] | 100% |  | 63.1% |
| Nc1ncc(-c2ccc(CNC(=O)c3ccc4c(c3)NC(=O)c3ccccc3S4(=O)=O)cc2)cn1 [Compound 777] | 99% |  | 11.7% |
| O=C(NCc1cccc(Cc2cccc(O)c2)c1)c1ccc2c(c1)NC(=O)c1ccccc1S2(=O)=O [Compound 808, N-(3-(3-hydroxybenzyl)benzyl)-11-oxo-10,11-dihydrodibenzo[b,f][1,4]thiazepine-8-carboxamide 5,5-dioxide] | 90% |  | 3% |
| COc1cccc(Cc2cccc(CNC(=O)c3ccc4c(c3)NC(=O)c3ccccc3S4(=O)=O)c2)c1 [Compound 808-A, N-(3-(3-methoxybenzyl)benzyl)-11-oxo-10,11-dihydrodibenzo[b,f][1,4]thiazepine-8-carboxamide 5,5-dioxide] | 84% |  | 1.5% |
| O=C(NCc1cccc(Cc2ccc(O)cc2)c1)c1ccc2c(c1)NC(=O)c1ccccc1S2(=O)=O [Compound 809, N-(3-(4-hydroxybenzyl)benzyl)-11-oxo-10,11-dihydrodibenzo[b,f][1,4]thiazepine-8-carboxamide 5,5-dioxide] | 77% |  | 1.1% |
| COc1ccc(Cc2cccc(CNC(=O)c3ccc4c(c3)NC(=O)c3ccccc3S4(=O)=O)c2)cc1 [Compound 809-A, N-(3-(4-methoxybenzyl)benzyl)-11-oxo-10,11-dihydrodibenzo[b,f][1,4]thiazepine-8-carboxamide 5,5-dioxide] | 85% |  | 0.6% |
| O=C(NCc1cccc(Oc2cccc(O)c2)c1)c1ccc2c(c1)NC(=O)c1ccccc1S2(=O)=O [Compound 810, N-(3-(3-hydroxyphenoxy)benzyl)-11-oxo-10,11-dihydrodibenzo[b,f][1,4]thiazepine-8-carboxamide 5,5-dioxide] | 93% |  | 3.2% |
| COc1cccc(Oc2cccc(CNC(=O)c3ccc4c(c3)NC(=O)c3ccccc3S4(=O)=O)c2)c1 [Compound 810-A, N-(3-(3-methoxyphenoxy)benzyl)-11-oxo-10,11-dihydrodibenzo[b,f][1, 4]thiazepine-8-carboxamide 5,5-dioxide] | 90% |  | 1.1% |
| O=C(NCc1cccc(Oc2ccc(O)cc2)c1)c1ccc2c(c1)NC(=O)c1ccccc1S2(=O)=O [Compound 811, N-(3-(4-hydroxyphenoxy)benzyl)-11-oxo-10,11-dihydrodibenzo[b,f][1,4]thiazepine-8-carboxamide 5,5-dioxide] | 95% |  | 1.2% |
| COc1ccc(Oc2cccc(CNC(=O)c3ccc4c(c3)NC(=O)c3ccccc3S4(=O)=O)c2)cc1 [Compound 811-A, N-(3-(4-methoxyphenoxy)benzyl)-11-oxo-10,11-dihydrodibenzo[b,f][1,4]thiazepine-8-carboxamide 5,5-dioxide] | 86% |  | 1.9% |
| O=C(NCc1cccc(Sc2cccc(O)c2)c1)c1ccc2c(c1)NC(=O)c1ccccc1S2(=O)=O [Compound 812, N-(3-((3-hydroxyphenyl)thio)benzyl)-11-oxo-10,11-dihydrodibenzo[b,f][1,4]thiazepine-8-carboxamide 5,5-dioxide] | 99% |  | 5.1% |

From US10766890B2, “Hepatitis B core protein modulators” (Assembly Biosciences, Inc., priority 2015, dated 2020)
